Source: patent US20220096503A1, “COMBINATION PHARMACEUTICAL COMPOSITIONS AND METHODS THEREOF” (University of Washington, priority 2019, published 2022)
Read-outs that look alike come from different tables or passages of the source.

Columns and labels:
[1] = Conventional dosage form LPV/RTV, oral administration, non-human primates (Example 4); type: in vivo; details: non-human primates vs humans
Description: AUC (area under the curve, or total drug exposure) of the active drug lopinavir was dose normalized across species and route of administration by dividing the total exposure by the dose administered (μg*hr*kg/(mL*mg)). Dashes represent unreported data. Apparent half-life is reported in hours.

[2] = Human, IV; cited from earlier work
[3] = Non-human Primates, SC; cited from earlier work

total AUC of lopinavir (PO) in non-human primates, fold lower than humans [1] [fold] | SMILES | AUC (dose normalized) [2] [µg·kg·h/mL/mg] | T1/2, app [2] [h] | AUC (dose normalized) [3] [µg·kg·h/mL/mg] | T1/2, app [3] [h]
10 | Cc1cccc(C)c1OCC(=O)N[C@@H](Cc1ccccc1)[C@@H](O)C[C@H](Cc1ccccc1)NC(=O)[C@H](C(C)C)N1CCCNC1=O [lopinavir] |  |  |  | 
 | C[C@H](Cn1cnc2c(N)ncnc21)OCP(=O)(O)O [TFV, tenofovir] | 5.6 | 6.6 | 2.1 | 8
